Data as given in patent US10750742B2, “Pesticidally active pyrazole derivatives” (SYNGENTA PARTICIPATIONS AG, priority 2015, dated 2020).
Where two headings read alike, the source gives them in different places.

What was measured:
Format in all cases: in vivo
Spodoptera littoralis = Spodoptera littoralis (Egyptian cotton leaf worm), cotton leaf disc spray test; conditions: foliar, 72 h, read-out: control (at least one of mortality, anti-feedant effect, growth inhibition); for percent control (mortality, anti-feedant effect or growth inhibition) at 200 ppm: application rate 200 ppm, L1 larvae, 3 days after infestation
Description: Spodoptera littoralis (Egyptian Cotton Leaf Worm)
Cotton leaf discs were placed on agar in 24-well microtiter plates and sprayed with aqueous test solutions prepared from 10′000 ppm DMSO stock solutions. After drying the leaf discs were infested with five L1 larvae. The samples were assessed for mortality, anti-feedant effect, and growth inhibition in comparison to untreated samples 3 days after infestation. Control of Spodoptera littoralis by a test sample is when at least one of mortality, anti-feedant effect, and growth inhibition is higher than the untreated sample.

Plutella xylostella = Plutella xylostella (diamond back moth), artificial diet test; conditions: 120 h, read-out: control (mortality and growth inhibition)
Description: Plutella xylostella (Diamond Back Moth):
24-well microtiter plates with artificial diet were treated with aqueous test solutions prepared from 10′000 ppm DMSO stock solutions by pipetting. After drying, the plates were infested with L2 larvae (10 to 15 per well). The samples were assessed for mortality and growth inhibition in comparison to untreated samples 5 days after infestation.

Diabrotica balteata = Diabrotica balteata (corn root worm), maize sprout test; conditions: 96 h, read-out: control (mortality and growth inhibition)
Description: Diabrotica balteata, (Corn Root Worm)
Maize sprouts, placed on an agar layer in 24-well microtiter plates were treated with aqueous test solutions prepared from 10′000 ppm DMSO stock solutions by spraying. After drying, the plates were infested with L2 larvae (6 to 10 per well). The samples were assessed for mortality and growth inhibition in comparison to untreated samples 4 days after infestation.

Thrips tabaci = Thrips tabaci (onion thrips), sunflower leaf disc test; conditions: foliar, 144 h, read-out: control (mortality)
Description: Thrips tabaci (Onion Thrips):
Sunflower leaf discs were placed on agar in 24-well microtiter plates and sprayed with aqueous test solutions prepared from 10′000 ppm DMSO stock solutions. After drying the leaf discs were infested with a thrips population of mixed ages. The samples were assessed for mortality 6 days after infestation.

Tetranychus urticae = Tetranychus urticae (two-spotted spider mite), bean leaf disc test; conditions: foliar, 192 h, read-out: control (mortality on mixed population, mobile stages)
Description: Tetranychus urticae (Two-Spotted Spider Mite):
Bean leaf discs on agar in 24-well microtiter plates were sprayed with aqueous test solutions prepared from 10′000 ppm DMSO stock solutions. After drying the leaf discs were infested with a mite population of mixed ages. The samples were assessed for mortality on mixed population (mobile stages) 8 days after infestation.

Euschistus heros = Euschistus heros (neotropical brown stink bug), soybean leaf test; conditions: 120 h, read-out: effect in at least one of the two categories (mortality or growth inhibition); for percent effect (mortality or growth inhibition) at 200 ppm: application rate 200 ppm, N2 nymphs, 5 days after infestation
Description: Euschistus heros (Neotropical Brown Stink Bug):
Soybean leaves on agar in 24-well microtiter plates were sprayed with aqueous test solutions prepared from 10′000 ppm DMSO stock solutions. After drying the leaves were infested with N2 nymphs. The samples were assessed for mortality and growth inhibition in comparison to untreated samples 5 days after infestation.

Myzus persicae [1] = test: Myzus persicae (green peach aphid), sunflower leaf disc spray test; conditions: foliar, 144 h
Description: (§1) Myzus persicae (Green Peach Aphid):
Sunflower leaf discs were placed on agar in a 24-well microtiter plate and sprayed with test solutions at an application rate of 200 ppm. After drying, the leaf discs were infested with an aphid population of mixed ages. After an incubation period of 6 DAT, samples were checked for mortality. The following compounds gave at least 80% mortality of Myzus persicae: compounds 1,2, 3, 4, 5, 6, 11, 12, 15, 17, 18, 19, 20, 23, 24, 25, 26, 27, 30, 32, 33, 34 35, 41, 43, 44, 47, 50, 55, 58, 59, 60, 61, 62, 63, 64, 65 and 66.

Myzus persicae [2] = test: Myzus persicae (green peach aphid), sucrose solution / Parafilm test; conditions: 120 h
Description: as §1
Test compounds were applied by pipette into 24 well plates and mixed with Sucrose solution. Application rate: 12.5 ppm. The plates were closed with a stretched parafilm. A plastic stencil with 24 holes is placed onto the plate and infested pea seedlings were placed directly on the Parafilm. The infested plate is closed with a gel blotting paper and another plastic stencil and then turned upside down. 5 days after infestation the samples were checked on mortality.

[3] = application rate 200 ppm, L2 larvae, 5 days after infestation
[4] = application rate 200 ppm, L2 larvae, 4 days after infestation
[5] = application rate 200 ppm, mixed ages, 6 days after infestation
[6] = application rate 200 ppm, 8 days after infestation
[7] = application rate 200 ppm, mixed ages, 6 DAT, read-out: mortality
[8] = test rate of 12 ppm, sucrose solution, 5 days after infestation, read-out: mortality

Cn1nc(OCC(F)(F)F)c(C(F)(F)F)c1-n1cc(-c2ccc(Cl)c(C(=O)NC3CC3)c2)cn1 [compound 2]
≥ 80%: percent control (mortality, anti-feedant effect or growth inhibition) at 200 ppm (Spodoptera littoralis) | mortality at 200 ppm (Plutella xylostella; [3]) | mortality at 200 ppm (Diabrotica balteata; [4]) | mortality at 200 ppm (Thrips tabaci; [5]) | mortality at 200 ppm (Tetranychus urticae; [6]) | percent effect (mortality or growth inhibition) at 200 ppm (Euschistus heros) | mortality at 200 ppm (Myzus persicae [1]; [7]) | mortality at 12 ppm (Myzus persicae [2]; [8])

Cn1nc(OCC(F)(F)F)c(C(F)(F)F)c1-n1cc(-c2ccc(Cl)c(C(=O)NC3(C#N)CC3)c2)cn1 [compound 3]
≥ 80%: percent control (mortality, anti-feedant effect or growth inhibition) at 200 ppm (Spodoptera littoralis) | mortality at 200 ppm (Plutella xylostella; [3]) | mortality at 200 ppm (Diabrotica balteata; [4]) | mortality at 200 ppm (Thrips tabaci; [5]) | mortality at 200 ppm (Tetranychus urticae; [6]) | percent effect (mortality or growth inhibition) at 200 ppm (Euschistus heros) | mortality at 200 ppm (Myzus persicae [1]; [7]) | mortality at 12 ppm (Myzus persicae [2]; [8])

Cn1nc(OC(F)(F)C(F)F)c(C(F)(F)F)c1-n1cc(-c2ccc(Cl)c(C(=O)NC3(C#N)CC3)c2)cn1 [compound 11]
≥ 80%: percent control (mortality, anti-feedant effect or growth inhibition) at 200 ppm (Spodoptera littoralis) | mortality at 200 ppm (Plutella xylostella; [3]) | mortality at 200 ppm (Diabrotica balteata; [4]) | mortality at 200 ppm (Thrips tabaci; [5]) | mortality at 200 ppm (Tetranychus urticae; [6]) | percent effect (mortality or growth inhibition) at 200 ppm (Euschistus heros) | mortality at 200 ppm (Myzus persicae [1]; [7]) | mortality at 12 ppm (Myzus persicae [2]; [8])

Cn1nc(OC(F)(F)C(F)(F)Br)c(C(F)(F)F)c1-n1cc(-c2ccc(Cl)c(C(=O)NC3(C#N)CC3)c2)cn1 [compound 12]
≥ 80%: percent control (mortality, anti-feedant effect or growth inhibition) at 200 ppm (Spodoptera littoralis) | mortality at 200 ppm (Plutella xylostella; [3]) | mortality at 200 ppm (Diabrotica balteata; [4]) | mortality at 200 ppm (Thrips tabaci; [5]) | mortality at 200 ppm (Tetranychus urticae; [6]) | percent effect (mortality or growth inhibition) at 200 ppm (Euschistus heros) | mortality at 200 ppm (Myzus persicae [1]; [7]) | mortality at 12 ppm (Myzus persicae [2]; [8])

Cn1nc(OC(F)(F)C(F)OC(F)(F)C(F)(F)C(F)(F)F)c(C(F)(F)F)c1-n1cc(-c2ccc(Cl)c(C(=O)NC3(C#N)CC3)c2)cn1 (centres unmarked) [compound 17]
≥ 80%: mortality at 200 ppm (Spodoptera littoralis) | mortality at 200 ppm (Plutella xylostella) | mortality at 200 ppm (Diabrotica balteata) | mortality at 200 ppm (Thrips tabaci) | mortality at 200 ppm (Tetranychus urticae) | percent control (mortality or growth inhibition) at 200 ppm (Euschistus heros) | mortality at 200 ppm (Myzus persicae [1]) | mortality at 12 ppm (Myzus persicae [2])

Cn1nc(OCC(F)(F)OC(F)(F)C(F)(F)OC(F)(F)F)c(C(F)(F)F)c1-n1cc(-c2ccc(Cl)c(C(=O)NC3(C#N)CC3)c2)cn1 [compound 18]
≥ 80%: percent control (mortality, anti-feedant effect or growth inhibition) at 200 ppm (Spodoptera littoralis) | mortality at 200 ppm (Plutella xylostella; [3]) | mortality at 200 ppm (Diabrotica balteata; [4]) | mortality at 200 ppm (Thrips tabaci; [5]) | mortality at 200 ppm (Tetranychus urticae; [6]) | percent effect (mortality or growth inhibition) at 200 ppm (Euschistus heros) | mortality at 200 ppm (Myzus persicae [1]; [7]) | mortality at 12 ppm (Myzus persicae [2]; [8])

Cn1nc(OCC(F)(F)C(F)(F)C(F)(F)F)c(C(F)(F)F)c1-n1cc(-c2ccc(Cl)c(C(=O)NC3(C#N)CC3)c2)cn1 [compound 19]
≥ 80%: mortality at 200 ppm (Spodoptera littoralis) | mortality at 200 ppm (Plutella xylostella) | mortality at 200 ppm (Diabrotica balteata) | mortality at 200 ppm (Thrips tabaci) | mortality at 200 ppm (Tetranychus urticae) | percent control (mortality or growth inhibition) at 200 ppm (Euschistus heros) | mortality at 200 ppm (Myzus persicae [1]) | mortality at 12 ppm (Myzus persicae [2])

Cn1nc(OCC(F)(F)C(F)(F)C(F)(F)C(F)F)c(C(F)(F)F)c1-n1cc(-c2ccc(Cl)c(C(=O)NC3(C#N)CC3)c2)cn1 [compound 20]
≥ 80%: mortality at 200 ppm (Spodoptera littoralis) | mortality at 200 ppm (Plutella xylostella) | mortality at 200 ppm (Diabrotica balteata) | mortality at 200 ppm (Thrips tabaci) | mortality at 200 ppm (Tetranychus urticae) | percent control (mortality or growth inhibition) at 200 ppm (Euschistus heros) | mortality at 200 ppm (Myzus persicae [1]) | mortality at 12 ppm (Myzus persicae [2])

Cn1nc(OCC(F)F)c(C(F)(F)F)c1-n1cc(-c2ccc(Cl)c(C(=O)NC3(C#N)CC3)c2)cn1 [compound 23]
≥ 80%: percent control (mortality, anti-feedant effect or growth inhibition) at 200 ppm (Spodoptera littoralis) | mortality at 200 ppm (Plutella xylostella; [3]) | mortality at 200 ppm (Diabrotica balteata; [4]) | mortality at 200 ppm (Thrips tabaci; [5]) | mortality at 200 ppm (Tetranychus urticae; [6]) | percent effect (mortality or growth inhibition) at 200 ppm (Euschistus heros) | mortality at 200 ppm (Myzus persicae [1]; [7]) | mortality at 12 ppm (Myzus persicae [2]; [8])

Cn1nc(OCC(F)(F)OC(F)(F)C(F)(F)OC(F)(F)F)c(C(F)(F)F)c1-n1cc(-c2ccc(Cl)c(C(=O)NC3CC3)c2)cn1 [compound 25]
≥ 80%: percent control (mortality, anti-feedant effect or growth inhibition) at 200 ppm (Spodoptera littoralis) | mortality at 200 ppm (Plutella xylostella; [3]) | mortality at 200 ppm (Diabrotica balteata; [4]) | mortality at 200 ppm (Thrips tabaci; [5]) | mortality at 200 ppm (Tetranychus urticae; [6]) | percent effect (mortality or growth inhibition) at 200 ppm (Euschistus heros) | mortality at 200 ppm (Myzus persicae [1]; [7]) | mortality at 12 ppm (Myzus persicae [2]; [8])

Cn1nc(OCC(F)(F)C(F)(F)C(F)(F)F)c(C(F)(F)F)c1-n1cc(-c2ccc(Cl)c(C(=O)NC3CC3)c2)cn1 [compound 26]
≥ 80%: mortality at 200 ppm (Spodoptera littoralis) | mortality at 200 ppm (Plutella xylostella) | mortality at 200 ppm (Diabrotica balteata) | mortality at 200 ppm (Thrips tabaci) | mortality at 200 ppm (Tetranychus urticae) | percent control (mortality or growth inhibition) at 200 ppm (Euschistus heros) | mortality at 200 ppm (Myzus persicae [1]) | mortality at 12 ppm (Myzus persicae [2])

Cn1nc(OC(F)(F)C(F)Cl)c(C(F)(F)F)c1-n1cc(-c2ccc(Cl)c(C(=O)NC3(C#N)CC3)c2)cn1 (centres unmarked) [compound 44]
≥ 80%: mortality at 200 ppm (Diabrotica balteata; [4]) | mortality at 200 ppm (Thrips tabaci; [5]) | mortality at 200 ppm (Tetranychus urticae; [6]) | percent effect (mortality or growth inhibition) at 200 ppm (Euschistus heros) | mortality at 200 ppm (Myzus persicae [1]; [7]) | mortality at 12 ppm (Myzus persicae [2]; [8])

Cc1ccc(-c2cnn(-c3c(C(F)(F)F)c(OC(F)(F)C(F)C(F)(F)F)nn3C)c2)cc1C(=O)NC1CC1 (centres unmarked) [compound 58]
≥ 80%: percent control (mortality, anti-feedant effect or growth inhibition) at 200 ppm (Spodoptera littoralis) | mortality at 200 ppm (Plutella xylostella; [3]) | mortality at 200 ppm (Diabrotica balteata; [4]) | mortality at 200 ppm (Thrips tabaci; [5]) | mortality at 200 ppm (Tetranychus urticae; [6]) | mortality at 200 ppm (Myzus persicae [1]; [7]) | mortality at 12 ppm (Myzus persicae [2]; [8])
